Reference: patent US10100030B2 (Kissei Pharmaceutical Co., Ltd., priority 2013, dated 2018)
Read-outs that look alike come from different tables or passages of the source.

How the values were obtained:
CYP3A4 [1] = target: T1, CYP3A4 (Homo sapiens (Human), UniProt P08684); conditions: background literature; cited from earlier work
human NK1 receptor [2] = target: T2, human NK1 receptor (Homo sapiens (Human), UniProt P25103); experiment: Affinity for human NK1 receptor (125I-substance P receptor binding test); conditions: membrane fraction of human NK1 receptor-expressing 293T cells; read-out: IC50 (concentration required for 50% inhibition of 125I-substance P binding)
Experimental: Affinity for Human NK1 Receptor
(3) Measurement of Binding Affinity to Human NK1 Receptor
(3-1) Preparation of Membrane Fraction from Human NK1 Receptor-expressing Cells
Human NK1 receptor-expressing cells were prepared in a 175 cm^2 culture flask (Nippon Becton Dickinson). The formation of a complex of the human NK1 receptor expression plasmid and Lipofectamine 2000 was performed by calculating the culture area ratio and increasing the scale of the method described in the above 2-4 by the ratio. The human NK1 receptor-expressing cells were collected in a buffer solution for the membrane fraction preparation (50 mM Tris (Wako Pure Chemical). 120 mM sodium chloride (Wako Pure Chemical Industries), 5 mM potassium chloride (Wako Pure Chemical Industries), 1 mM ethylenediaminetetraacetic acid (Sigma), 0.002 mg/mL chymostatin (Peptide Institute), 0.04 mg/ bacitracin (Wako Pure Chemical Industries), 0.005 mg/mL phosphoramidon (Peptide Institute) and 0.5 mM phenylmethylsulfonyl fluoride (Wako Pure Chemical Industries), pH7.4) and centrifuged at 1,880 g for 10 minutes, and the cell sediment was suspended in the buffer solution for the membrane fraction preparation. After freezing and thawing the cells once, the cells were homogenized using a Dounce-type homogenizer (cooled on ice, 1000 rpm, 20 times). The homogenized cell suspension was centrifuged at 20,000 rpm for 10 minutes, and the supernatant was removed to obtain cell sediment. The cell sediment was suspended again in the buffer solution for the membrane fraction preparation and homogenized using a Dounce-type homogenizer (cooled on ice, 1000 rpm, 30 times). The cell suspension was centrifuged at 20,000 rpm for 10 minutes, and the supernatant was removed to obtain cell sediment. The same homogenization and centrifugation were repeated again, and final cell sediment was obtained. The final cell sediment was suspended in a buffer solution for the receptor binding test (50 mM Tris (Wako Pure Chemical Industries), 3 mM manganese chloride (Wako Pure Chemical Industries), 0.002 mg/mL chymostatin (Peptide Institute), 0.04 mg/bacitracin (Wako Pure Chemical Industries) and 0.02% bovine serum albumin (Sigma), pH 7.4), and the protein concentration was measured using BCA Protein Assay Kit (Pierce).
(3-2) Receptor Binding Test
The buffer solution for the receptor binding test was dispensed to the wells of a 96-well assay plate (Greiner) at 22.5 μL/well. DMSO solutions of a test compound, which were prepared at an 80-time higher concentration using 100% dimethyl sulfoxide (DMSO), were added to the wells at 2.5 μL/well (final concentrations of 1 nM to 100 nM), and the solutions were mixed. As a radiolabeled ligand, ^125I-substance P (Substance P, [^125I]Tyr^8-, PerkinElmer) was used. ^125I-substance P was diluted with the buffer solution for the receptor binding test to a concentration resulting in […] and added to the 96-well assay plate, and the solutions were mixed. The membrane fraction prepared from the human NK1 receptor-expressing cells was diluted with the buffer solution for the receptor binding test to a concentration resulting in 8 to 10 μg/well, suspended until the suspension became in such a homogenous state that the suspension could flow through as 27G injection needle smoothly and then added to the 96-well assay plate at 150 μL/well. Then, the plate was incubated at room temperature for 60 minutes while shaking the plate. The reaction solutions were suction-filtered. through a multiscreen 96-well filter plate (Millipore) which had been pre-treated with 0.3% polyethyleneimine, and the reaction was terminated by washing with a washing solution (50 mM Tris and 0.02% bovine serum albumin, pH 7.4) four times. The bottom of the microplate was dried at 60° C., and then 100 μL/well of MicroScint 20 (PerkinElmer) was dispensed to the wells. The top of the plate was sealed with TopSeal A (PerkinElmer), and the plate was shaken for 5 to 10 minutes. […]

human NK1 receptor [3] = target: T2, human NK1 receptor; experiment: Inhibitory effect on human NK1 receptor (substance P-induced increase in intracellular calcium concentration); assay type: cell-based; conditions: HEK-293T; substance P 1 μM, compound 0.1 μM; human NK1 receptor-expressing 293T cells; read-out: SPRR (Substance P-Response Remaining)
Experimental: Inhibitory Effect on Human NK1 Receptor
(1) Preparation of Human NK1 Receptor-expressing Cells
Human NK1 receptor-expressing cells were prepared by the same methods as those described in 2-3 and 2-4 of Test Example 1.
(2) Study on Inhibitory Effect on Increase in Intracellular Calcium Concentration
The human NK1 receptor-expressing cells were washed with 300 μL/well of a washing solution (20 mM HEPES/Hank's Balanced Salt Solution (HBSS) […]). A fluorescent calcium indicator (Fluo-4 Direct Calcium Assay Kit, Life Technologies, containing 0.42 mM probenecid and 0.1% bovine serum albumin, prepared according to the protocol of the product) was added to the wells at 150 μL/well, and the plate was incubated at 37° C. for 30 minutes in an incubator. Then, DMSO solutions of a test compound, which were prepared at an 80-time higher concentration using 100% dimethyl sulfoxide (DMSO), were added to the wells at 2.5 μL/well (final concentrations of 0.1, 1 and 10 μM), and the solutions were mixed. Then, the plate was further incubated at 37° C. for 30 minutes in an incubator. After 30 minutes, the intracellular calcium concentrations were measured immediately.
The intracellular calcium concentrations were each measured as a fluorescent signal using FDSS (registered trademark) 7000 (Hamamatsu Photonics). A substance P (Peptide Institute, Inc.) solution which was prepared at 0.4 μM or 4 μM using an assay buffer (20 mM HEPES/Hank's Balanced Salt Solution (HBSS) pH 7.3, containing 0.1% bovine serum albumin) was added automatically to each well at 50 μL/well (final concentration of 0.1 or 1 μM) 10 seconds after starting reading, and the fluorescent signal was measured up to 120 seconds.
The intracellular calcium concentration (%) of the cells to which a test compound was added was calculated by the equation below, where the fluorescent signal of the group to which the vehicle (DMSO) was added was regarded as 100%, and the fluorescent signal before the addition of substance P was regarded as 0%. Intracellular calcium concentration(%)=(Fluorescent signal of test compound addition group)/(Fluorescent signal of vehicle addition group)×100
The intracellular calcium concentration (%) calculated was regarded as the remaining agonist activity of substance P (Substance P-Response Remaining: SPRR). In the table, Ex. No. means the Example number. SPRR (%) is the value obtained when the concentration of substance P was 1 μM and the concentration of the compound was 0.1 μM.

NK1 receptor = NK1 receptor (Meriones unguiculatus (Mongolian jird) (Gerbillus unguiculatus), UniProt Q5DUB1); experiment: Effect on GR73632-induced foot-tapping; assay type: in vivo; conditions: 0.3 mg/kg from the jugular vein, GR73632 after four hours, male gerbil
Experimental: (1) Effect on Foot-tapping
(§1) A male gerbil (Japan SLC) was anesthetized with isoflurane, and 0.3 mg/kg of a test compound was administered from the jugular vein. After four hours, GR73632 (5 pmol/5 μl), which is an NK1 receptor agonist, was administered into the cerebral ventricle at the part 1 mm lateral to and 4.5 mm below the bregma in the head, under anesthesia with isoflurane. After the administration, the gerbil was moved to an observation cage, and the foot-tapping period during five minutes after the recovery of the righting reflex was measured. The foot-tapping inhibition rate (%) of each test compound was calculated by the following equation. Foot-tapping inhibition rate (%)={1−(Foot-tapping period when test compound was administered)/(Foot-tapping period when solvent was administered)}×100 (2) Measurement of Drug Concentrations
(§2) In the table, Ex. No. means the Example number. Inhibition (%) is the foot-tapping inhibition rate, and Conc. (nM) is the drug concentration in the brain.

[4] = Measurement of drug concentrations in the brain after foot-tapping test; assay type: in vivo; conditions: male; 0.3 mg/kg iv, after foot-tapping was finished, gerbil brain; read-out: Conc. (drug concentration in the brain)
Experimental: as §1
After foot-tapping was finished, laparotomy was performed immediately under anesthesia with ether, and a blood sample was taken from the abdominal vena cava. At the same time, the brain was extracted. Through a quantitative analysis using liquid chromatography-mass spectrometry (LC/MS), the concentrations of the test compound in the plasma and the brain were measured.
as §2

CYP3A4 [5] = target: T1, CYP3A4; experiment: Inhibitory effect on CYP3A4 (Luciferin-IPA)
Experimental: Enzyme reaction was performed by incubating in a potassium phosphate buffer solution (pH 7.4) containing 1 nM to 20 μM test compound, 3.2 mM magnesium chloride, 0.2 pmol human CYP3A4 (BD Biosciences), 0.5 mM reduced nicotinamide adenine dinucleotide phosphate (NADPH) and 3 μM Luciferin-IPA (Promega) at 37° C. for 10 minutes. The volume of the reaction solution was 50 μL/well. The 30-minute pre-incubation group was incubated at 37° C. for 30 minutes before adding the substrate, the Luciferin-IPA solution (12.5 μL/well). At the end of the enzyme reaction, 50 μL/well of a Luciferin detection reagent (Promega) was added to the wells, and the plate was left at room temperature for 20 minutes. Then, the emission intensities were measured with Infinite M1000 (TECAN). The enzyme activities (%) relative to the value of the group to which the test compound was not added were calculated.

[6] = read-out: IC50 (CYP3A4 inhibition), 30-minute pre-incubation group

Sequence of NK1 receptor (Q5DUB1 whole entry): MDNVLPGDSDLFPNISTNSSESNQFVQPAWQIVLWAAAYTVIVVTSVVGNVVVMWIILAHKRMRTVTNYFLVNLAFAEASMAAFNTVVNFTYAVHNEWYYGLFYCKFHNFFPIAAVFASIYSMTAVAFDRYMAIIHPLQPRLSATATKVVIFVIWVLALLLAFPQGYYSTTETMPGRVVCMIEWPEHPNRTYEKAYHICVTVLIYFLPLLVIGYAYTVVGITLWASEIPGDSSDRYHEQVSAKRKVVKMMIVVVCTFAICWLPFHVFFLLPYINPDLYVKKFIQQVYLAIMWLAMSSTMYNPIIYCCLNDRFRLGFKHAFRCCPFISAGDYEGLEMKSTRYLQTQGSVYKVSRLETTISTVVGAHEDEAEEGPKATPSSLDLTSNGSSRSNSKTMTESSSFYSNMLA
T1 sequence (P08684 whole entry): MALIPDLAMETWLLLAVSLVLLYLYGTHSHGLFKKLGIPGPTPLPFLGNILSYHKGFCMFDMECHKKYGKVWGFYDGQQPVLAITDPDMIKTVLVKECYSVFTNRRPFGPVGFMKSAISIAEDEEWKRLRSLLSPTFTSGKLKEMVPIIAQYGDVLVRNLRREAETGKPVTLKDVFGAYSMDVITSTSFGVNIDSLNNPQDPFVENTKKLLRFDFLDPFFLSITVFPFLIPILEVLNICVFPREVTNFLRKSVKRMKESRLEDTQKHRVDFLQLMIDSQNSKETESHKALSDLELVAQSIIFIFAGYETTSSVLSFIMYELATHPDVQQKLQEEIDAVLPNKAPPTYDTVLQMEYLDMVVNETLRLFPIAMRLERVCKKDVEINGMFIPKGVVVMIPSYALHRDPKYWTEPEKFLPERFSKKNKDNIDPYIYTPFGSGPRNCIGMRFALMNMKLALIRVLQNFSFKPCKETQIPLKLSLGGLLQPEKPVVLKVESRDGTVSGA
T2 sequence (P25103 whole entry): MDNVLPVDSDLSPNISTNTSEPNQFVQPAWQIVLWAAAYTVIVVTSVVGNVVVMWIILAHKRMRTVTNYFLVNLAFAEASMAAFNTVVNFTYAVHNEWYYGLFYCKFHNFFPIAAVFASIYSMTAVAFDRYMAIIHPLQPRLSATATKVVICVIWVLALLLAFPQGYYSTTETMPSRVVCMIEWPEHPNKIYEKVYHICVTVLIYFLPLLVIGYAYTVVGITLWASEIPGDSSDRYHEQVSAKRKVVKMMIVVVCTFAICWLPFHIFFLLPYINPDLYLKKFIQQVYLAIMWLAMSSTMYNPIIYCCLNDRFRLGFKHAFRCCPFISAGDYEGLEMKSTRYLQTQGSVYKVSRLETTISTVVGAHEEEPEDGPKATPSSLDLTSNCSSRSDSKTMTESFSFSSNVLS

Structure (SMILES)	IC50 (human NK1 receptor [2]) [µM]	remaining activity at 0.1 µM (human NK1 receptor [3]) [%]	Inhibition (foot-tapping inhibition rate) (NK1 receptor) [%]	concentration at 4 h [4] [nM]	IC50 (CYP3A4 [5]; [6]) [µM]	inhibitory effect on CYP3A4 (reported) (CYP3A4 [1])	IC50 (CYP3A4 [5]) [µM]
C[C@@H](O[C@H]1OCCN(Cc2n[nH]c(=O)[nH]2)[C@H]1c1ccc(F)cc1)c1cc(C(F)(F)F)cc(C(F)(F)F)c1 [Aprepitant, aprepitant]	–	–	–	–	–	dose-dependent inhibitory effect on CYP3A4	–
COC1CN(c2cc(-c3ccc(F)cc3C)c(N(C)C(=O)C(C)(C)c3cc(C(F)(F)F)cc(C(F)(F)F)c3)cn2)CCC1CC(=O)O (centres unmarked) [Example 5, [5′-{[2-(3,5-Bistrifluoromethylphenyl)-2-methylpropionyl]methylamino}-4′-(4-fluoro-2-methylphenyl)-3-methoxyl-3,4,5,6-tetrahydro-2H-[1,2′]bipyridinyl-4-yl]acetic acid]	0.00329	49	97	111	5.5	–	–
Cc1cc(F)ccc1-c1cc(N2CCC([C@H](C)C(=O)O)CC2)ncc1N(C)C(=O)C(C)(C)c1cc(C(F)(F)F)cc(C(F)(F)F)c1 [Example 11, (S)-2-[5′-{[2-(3,5-Bistrifluoromethylphenyl)-2-methylpropionyl]methylamino}-4′-(4-fluoro-2-methylphenyl)-3,4,5,6-tetrahydro-2H-[1,2′]bipyridinyl-4-yl]propionic acid]	0.00132	7	–	–	–	–	4.9
CC(=O)N1CCN([C@H]2CCN(C(=O)N(C)[C@H](C)c3cc(C(F)(F)F)cc(C(F)(F)F)c3)[C@@H](c3ccc(F)cc3C)C2)CC1 [casopitant]	–	–	–	–	–	inhibitory effect on CYP3A4	–
Cc1ccccc1-c1cc(N2CCN(C)CC2)ncc1N(C)C(=O)C(C)(C)c1cc(C(F)(F)F)cc(C(F)(F)F)c1 [netupitant]	–	–	–	–	–	inhibitory effect on CYP3A4	–

More lines, main results first:

IC50 (human NK1 receptor [2]) [µM]	remaining activity at 0.1 µM (human NK1 receptor [3]) [%]	Inhibition (foot-tapping inhibition rate) (NK1 receptor) [%]	concentration at 4 h [4] [nM]	IC50 (CYP3A4 [5]; [6]) [µM]	Structure (SMILES)	inhibitory effect on CYP3A4 (reported) (CYP3A4 [1])	IC50 (CYP3A4 [5]) [µM]
0.00253	54	81	167	13	Cc1ccccc1-c1cc(N2CCC(CC(=O)O)CC2)ncc1N(C)C(=O)C(C)(C)c1cc(C(F)(F)F)cc(C(F)(F)F)c1 [Example 2, (5′-{[2-(3,5-Bistrifluoromethylphenyl)-2-methylpropionyl]methylamino}-4′-ortho-tolyl-3,4,5,6-tetrahydro-2H-[1,2]bipyridinyl-4-yl)acetic acid]	–	–
0.00461	13	100	262	3.7	Cc1cc(F)ccc1-c1cc(N2CCC(CC(=O)O)C(C)(C)C2)ncc1N(C)C(=O)C(C)(C)c1cc(C(F)(F)F)cc(C(F)(F)F)c1 (centres unmarked) [Example 3]	–	–
0.00354	16	100	179	4.8	Cc1cc(F)ccc1-c1cc(N2CCC(CC(=O)O)C(C)C2)ncc1N(C)C(=O)C(C)(C)c1cc(C(F)(F)F)cc(C(F)(F)F)c1 (centres unmarked) [Example 4]	–	–
0.0026	73	100	243	2.6	Cc1cc(F)ccc1-c1cc(N2CCC(CC(=O)O)CC2)nc(C#N)c1N(C)C(=O)C(C)(C)c1cc(C(F)(F)F)cc(C(F)(F)F)c1 [Example 6]	–	–
0.00465	6	–	–	4.1	Cc1cc(F)ccc1-c1cc(N2CCC(C(C)(C)C(=O)O)CC2)ncc1N(C)C(=O)C(C)(C)c1cc(C(F)(F)F)cc(C(F)(F)F)c1 [Example 7, [5′-{[2-(3,5-Bistrifluoromethylphenyl)-2-methylpropionyl]methylamino}-4′-(4-fluoro-2-methylphenyl)-3,4,5,6-tetrahydro-2H-[1,2′]bipyridinyl-4-yl]-2-methylpropionic acid]	–	–
0.00283	6	–	–	6.3	Cc1cc(F)ccc1-c1cc(N2CCC(C)(CC(=O)O)CC2)ncc1N(C)C(=O)C(C)(C)c1cc(C(F)(F)F)cc(C(F)(F)F)c1 [Example 9]	–	–
0.00332	–	100	219	3.8	Cc1cc(F)ccc1-c1cc(N2CCC(C)(CC(=O)O)CC2)nc(C#N)c1N(C)C(=O)C(C)(C)c1cc(C(F)(F)F)cc(C(F)(F)F)c1 [Example 10, [5′-{[2-(3,5-Bistrifluoromethylphenyl)-2-methylpropionyl]methylamino}-6′-cyano-4′-(4-fluoro-2-methylphenyl)-4-methyl-3,4,5,6-tetrahydro-2H-[1,2′]bipyridinyl-4-yl]acetic acid]	–	–
